Each structure is given as a SMILES string.

What is called melting point is the temperature, or range, at which the solid turns liquid.

`C=CCOCc1c(CN(C)C[C@@H](O)c2ccccn2)sc2c(=O)c(C(=O)NCc3ccc(Cl)cc3)cn(C)c12`: the melting point lay within 125 to 127 °C.
To `Fc1ccc2nc(Cl)ccc2c1` belongs 99 to 101 °C; to `CC(=O)Nc1ncc(S(=O)(=O)NC(C)(C)CO)s1`, 206 °C; to `Cn1cnc(COc2nn3c(-c4ccccc4)nnc3cc2-c2ccoc2)n1`, 241 °C.
Next, `CCCCOC(=O)NC(=O)C(C)(c1ccccc1)c1ccccc1`: 83 °C.
For the compound `CCOC(=O)C=Cc1ccc(C(=O)c2ccc3c(c2)C2(C)C4(C)CCC(C4)C2(C)O3)cc1` (centres undefined), the melting point lay in the range of 115 to 116 °C.
To `Cc1ccc2cccc(OCC(=O)c3ccc(Cl)cc3)c2n1` belongs 112 to 113 °C; to `Cc1cc(NS(=O)(=O)c2ccccc2)cnc1CCCC#N`, 119 to 120 °C; to `Cc1nc2ncnn2c(O)c1Br`, 269 °C.
Next, `CCn1cc(C(=O)O)c(=O)c2c(F)c(F)c(F)c(F)c21`: 229 to 230 °C; `CCCCN(CCCC)c1ccc(C=CC2=C(OC)C(=CC=CC3=C(C#N)C(=C(C#N)C#N)OC3(C)C(F)(F)F)CC(C)(C)C2)c(OC)c1` (centres undefined): 141 to 151 °C; `CCOCc1nc2c(N)nc3ccccc3c2n1Cc1cc(-c2cccnc2)no1`: 240 to 242 °C.
To `C[C@H]1CN(c2c(F)cc3c(=O)c(C(=O)O)cn4c3c2CCN4C)C[C@H]1NC(=O)CNC(=O)OC(C)(C)C` (relative stereo) belongs 142 to 145 °C.
In the case of `Cc1ccc(N2C(=O)c3cc([N+](=O)[O-])cc([N+](=O)[O-])c3C2=O)cc1`, the melting point lay in the range of 182 to 183 °C.
To `CN1C(=O)c2cccnc2Nc2ncccc21` belongs 230 to 232 °C; to `CCCCc1nc2c(N)nc3ccccc3c2n1CCOCCCc1ccccc1`, 80.8 to 81.3 °C; to `CCOC(=O)C(=CNc1coc2cc(OC)ccc2c1=O)C(=O)OCC`, 139 to 141 °C.
Next, `CC(=O)NC(CCc1ccccc1)(COC(C)=O)COC(C)=O`: 116 to 117 °C; `COc1ccc(C2=NN(c3nc(-c4cccs4)ns3)C(=O)[C@H]3CC=CC[C@@H]23)cc1Cl` (relative stereo): 254 to 256 °C; `CC(=O)Nc1ccc([C@@H]2CO2)cn1`: 96 to 98 °C.
Next, `COC(=O)Nc1ccc(Cl)c(F)c1I`: 137 to 139 °C; `Cc1ccc([N+](=O)[O-])cc1-c1cn(C)cc(-c2ccccc2)c1=O`: 185 to 187 °C.
For the compound `O=C1Nc2ccccc2OC1c1ccccc1` (centres undefined), the melting point amounted to 146 °C.
For `Cn1c(CC#N)ccc1C(=O)c1ccc(Cl)cc1`, the melting point is 120 to 124 °C.
Next, `COc1ccccc1N1CCN(C[C@@H](CC2CCCCC2)NC(=O)C2CCCCC2)CC1`: 121 to 131 °C.
Next, `NC(=O)COc1c(-c2ccccc2)c(=O)[nH]c2cc(Cl)ccc12`: 262 to 264 °C.
Next, `CCOC(=O)C1=C(C)NC(C)=C(C(=O)OCC)C1c1ccccc1/C=C(\C)C(=O)OCC`: 105 to 106 °C; `C=CCOc1cc(O)c2c(=O)cc(-c3ccc(OC)c(OCC=C)c3)oc2c1`: 122 °C.
As to `CN1CC=C(c2cn(-c3cccnc3)c3ccc([N+](=O)[O-])cc23)CC1`, the melting point fell in the range of 175 to 177 °C.
To `CC1=C(C(=O)O)C(c2cccc([N+](=O)[O-])c2)NC(=N[N+](=O)[O-])N1` (centres undefined) belongs 236 to 238 °C.
To `COCOc1cccc2c(=O)[nH]c(CCCCN(C)C)cc12` belongs 109 to 111 °C; to `Oc1ccc(-c2nc(-c3ccccc3)nc(-c3ccc(O)cc3O)n2)c(O)c1`, 250 to 252 °C.
Next, `Cn1nc(-c2ccc(F)cc2)c(-c2ccncc2)c1CCCc1ccccc1`: 83 to 87 °C; `COC(=O)C(Cc1ccccc1)NC(=S)Nc1nc2ccccc2s1` (racemic): 168 to 169 °C; `CCCC(=O)NCCCn1c(C)nc2c(N)nc3ccccc3c21`: 222 to 223 °C.
`CCOC(=O)Cc1ccc(C(=O)c2ccc(C)cc2)n1C` registered a melting point of 70 to 71 °C.
To `Cc1ccccc1CN1CCN(C)CC1C1=NCCN1` (centres undefined) belongs 156 to 158 °C; to `COc1cc(Nc2nccc(Nc3ccc4c(ccn4S(=O)(=O)c4ccccc4)c3)n2)cc(OC)c1OC`, 127 °C; to `Cc1cccc(C)c1NC(=O)N=C1CCC(C)N1C` (centres undefined), 120 to 122 °C.
Next, `CCOC(=O)C(Br)C(=O)Nc1ccccc1` (racemic): 90 °C; `COc1c(C)cc(C)c2c1C(=O)C1CCCCC21` (centres undefined): 72 to 74 °C; `CC(C)Cc1cccc(-c2nc(C(C)C)n(C)n2)n1`: 80.1 °C.
Next, `O=C(C(=Cc1ccc(F)cc1)S(=O)(=O)c1ccccc1)c1ccccc1`: 142 to 143 °C.
The compound `Cc1cc(-n2ccc(OCc3ccc(OC(F)F)cc3)cc2=O)sc1C(=O)NCc1ccccc1` registered a melting point of 178 to 180 °C.
To `CC(=O)Oc1ccc(C(C[N+](=O)[O-])SC(=S)N(C)C)cc1` (centres undefined) belongs 116 to 118 °C.
To `COC(=O)c1ccc(F)cc1C#N` belongs 92 to 93 °C; to `Cc1cccc(-c2nc3ccccn3c2-c2ccnc(-c3ccc(NS(=O)(=O)C(F)(F)F)cc3)c2)n1`, 135 °C.
In turn, `CCCCCCCCCCOc1cc(OCCCCCCCCCC)cc(N(CC(=O)OC)CC(=O)OC)c1` came in with a melting point of 36 to 38 °C.
In turn, `COc1ccc(/C=C/c2c(Cl)cccc2Cl)cc1OC1CCCC1` returned a melting point of 47 to 49 °C.
To `CC1(C)OC(=O)Nc2ccc(-c3cc(F)cc([N+](=O)[O-])c3)cc21` belongs 260 to 261 °C.
As for `N=C(N)c1ccc(-n2cnn(-c3ccc(CCC(=O)O)cc3)c2=O)cc1`, the melting point lay in the range of 313 to 316 °C.
Compound `O=c1cc(-c2ccccc2)oc2ccc(OCCCCCCCCN3CCC(O)CC3)cc12` showed a melting point of 57 to 58 °C.
To `NC1=NC(c2cccc(-c3cccnc3F)c2)(c2cnn(CC(F)(F)F)c2)C2=NCCCN12` (centres undefined) belongs 106 to 116 °C; to `Cc1c(SCCCSc2ccc3ncc([N+](=O)[O-])n3n2)ccnc1CO`, 127 to 129 °C.
In turn, `CS(=O)(=O)c1ccc(Oc2cc(OCc3ccccc3)c3[nH]c(-c4ncc(CO)s4)cc3c2)cc1` returned a melting point of 125 to 126 °C.
With `CN(C)C=Nc1c(F)ccc(F)c1C#N`, the melting point was in the range of 56 to 60 °C.
`C1=Cc2ccc3c(c2CC1)=C1CC=c2ccccc2=C1N=3` came in with a melting point of 218 °C.
Take `c1cnc(NCCN2CCC(=C3c4sccc4CCn4ccnc43)CC2)nc1`: the melting point stood at 173 °C.
As for `O=C1c2ccc([N+](=O)[O-])cc2COc2cc(-n3cnnn3)ccc21`, the melting point is 123 to 126 °C.
To `CC(=O)C=Cc1ccc2c(c1)OCCO2` belongs 80 °C.
Compound `c1cc(C2=NCCS2)nc(C2OCCO2)c1` showed a melting point of 50 to 52 °C.
Regarding `CC(C)NC(=O)NC(=O)c1ccnc([N+](=O)[O-])c1`, the melting point was 132 to 133 °C.
Next, `O=[N+]([O-])c1cc(F)ccc1Sc1ccccc1`: 66 to 67 °C.
To `CCCCCCCCCCCCCCCCCCOc1cc(OCCCCCc2cccc(O)c2O)cc(N(CC(=O)O)CC(=O)O)c1` belongs 129 to 131 °C; to `CCOC(=O)C(S)(C#N)C1=NC(C)Cc2cc(OC)c(OC)cc21` (centres undefined), 128 to 130 °C.
In the case of `O=C(O)C(Sc1nc2cc(Cl)ccc2s1)c1ccccc1` (centres undefined), the melting point was in the range of 190 to 192 °C.
In the case of `CCOC(=O)c1cnc2c(OC)nc(OC)cc2c1Cl`, the melting point lay in the range of 200 to 210 °C.
Next, `C=CCON=C(CC)C1=C(O)CC(c2c(C)c(C)c3c(c2C)CC(C)(CC)C3)CC1=O` (centres undefined): 64 to 65 °C; `O=C1C2CCCCC2C(=O)N1c1ccc(Cl)cc1F` (centres undefined): 94 to 95.5 °C; `CN(C)C(=O)c1c(-c2ccc(N(C)C)cc2)ccc2ccccc12`: 156 to 157 °C.
In turn, `CC(C)(C)c1cc(C=C2SC(NC#N)=NC2=O)cc(C(C)(C)C)c1O` came in with a melting point of 240 to 242 °C.
Next, `CCCNC(=O)C(C)=Cc1ccc2c(c1)c(Cc1ccc(C(=O)O)cc1OC)cn2CC(=O)N(C)C`: 232 to 235 °C.
To `CCCOc1ccc(S(=O)(=O)N2CCN(C)CC2)cc1-c1nc2cc3ncn(Cc4cccc(Cl)c4)c3cc2c(=O)[nH]1` belongs 198 to 200 °C.
To `c1ccc(C2(c3ccccc3)Oc3ccc(-c4nnn[nH]4)cc3O2)cc1` belongs 212 to 215 °C.
The compound `CCCCNC(=O)OCCCC(=O)c1ccccc1` came in with a melting point of 52 to 58 °C.
Next, `COc1ccc2c(c1)Cc1cc(CC(=O)O)ccc1-2`: 200 to 202 °C; `C#Cc1ccc(Nc2c(C(=O)NOCCO)ccc(F)c2F)c(F)c1`: 162 °C.
As for `CCCC(C)(c1ccc(F)cc1)c1cc(O)c2c3c(c(=O)oc2c1)CCC3` (centres undefined), the melting point was 133 to 135 °C.
As for `O=c1c2ccccc2oc2cc(OCCO)c(Cl)cc12`, the melting point fell in the range of 153 to 156 °C.
Next, `CCOC(=O)c1nn(-c2ccccc2C)c(=O)c2c(N)scc12`: 209 to 210 °C; `CC(C)C(=O)CC(=O)c1ccc(C(=O)c2ccccc2)cc1`: 76.5 to 78 °C; `COC(=O)C1=C(C)Nc2cc[nH]c(=O)c2C1c1ccccc1C(F)(F)F` (centres undefined): 295 °C.
Next, `CC[C@@H](CO)Nc1nc(-c2ccc(Br)cc2)cs1`: 91 to 93 °C; `COc1ccc(-c2csc(Nc3ncccc3C)n2)cc1OC`: 264 to 266 °C; `CNCC1CN(c2ccc3ccccc3c2)C(=O)O1` (centres undefined): 76.5 to 78 °C.
With `CN(C)c1ccc(C(=O)N2CCC(C(c3ccccc3)c3ccccc3)CC2)cc1`, the melting point was in the range of 177 to 179 °C.
Next, `CS(=O)(=O)c1ccc(-c2nnsc2-c2ccccc2)cc1`: 154 to 155 °C; `COc1ccc(C2CC(n3cncn3)c3ccccc3N2)cc1` (centres undefined): 170 to 172 °C; `CCOC(=O)C(Cc1ccc(O)cc1)Oc1ccc(F)cc1` (centres undefined): 80 to 81 °C.

Source of the values: a melting point compilation (Tetko et al.; mined from patent text by program, amines drawn as free bases though some values may be those of a salt).
